Results on ten compounds are retold here after ChEMBL document CHEMBL1145871, “Design and pharmacology of peptoids and peptide-peptoid hybrids based on the melanocortin agonists core tetrapeptide sequence” (Bioorg Med Chem Lett, 2003).

Activity calls are given as the source filed them. The rule behind the calls is not given here. Where a SMILES comes first, the peptide text is derived from it. [ ]: non-standard residue; d: D form. Gly(N(CH2)2(3-indolyl)) = O=C(O)CNCCc1c[nH]c2ccccc12; Gly(N-CH2CH2-imidazol-4-yl) = O=C(O)CNCCc1c[nH]cn1; N(1-naphthylmethyl)Gly = O=C(O)CNCc1cccc2ccccc12; Gly(N-(CH2)3-guanidino) = N=C(N)NCCCNCC(=O)O; NhArg = N=C(N)NCCCCNCC(=O)O; Nphe = O=C(O)CNCc1ccccc1; Nlys = NCCCCNCC(=O)O

The target in one test is Melanocortin receptor 5 (Mus musculus, UniProt P41149). Description: Agonistic activity evaluated at melanocortin 5 receptor (MC5R) of mouse HEK293 cells. Format: functional, cell-based.
Chain of Melanocortin receptor 5 (P41149 whole entry): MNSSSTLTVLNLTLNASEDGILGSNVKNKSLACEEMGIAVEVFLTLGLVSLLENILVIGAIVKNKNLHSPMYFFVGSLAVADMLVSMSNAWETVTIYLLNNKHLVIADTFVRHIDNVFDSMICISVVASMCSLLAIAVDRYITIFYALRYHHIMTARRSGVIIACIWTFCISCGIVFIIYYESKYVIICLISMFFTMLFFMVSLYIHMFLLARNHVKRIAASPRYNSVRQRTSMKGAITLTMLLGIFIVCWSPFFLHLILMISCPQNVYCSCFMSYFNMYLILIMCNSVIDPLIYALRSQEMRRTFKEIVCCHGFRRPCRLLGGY
Test [1] has as its target Melanocyte-stimulating hormone receptor (Mus musculus, UniProt Q01727). As to the kind of experiment: Agonistic activity evaluated at melanocortin 1 receptor (MC1R) of mouse HEK293 cells. Format: functional, cell-based.
Test [2] deals with Melanocortin receptor 3 (Mus musculus) (UniProt P33033). As to the kind of experiment: Percent stimulation at melanocortin 3 receptor (MC3R) of mouse HEK293 cells at a concentration of 100 uM. Format: cell-based.
Chain of Melanocortin receptor 3 (Mus musculus) (P33033 whole entry): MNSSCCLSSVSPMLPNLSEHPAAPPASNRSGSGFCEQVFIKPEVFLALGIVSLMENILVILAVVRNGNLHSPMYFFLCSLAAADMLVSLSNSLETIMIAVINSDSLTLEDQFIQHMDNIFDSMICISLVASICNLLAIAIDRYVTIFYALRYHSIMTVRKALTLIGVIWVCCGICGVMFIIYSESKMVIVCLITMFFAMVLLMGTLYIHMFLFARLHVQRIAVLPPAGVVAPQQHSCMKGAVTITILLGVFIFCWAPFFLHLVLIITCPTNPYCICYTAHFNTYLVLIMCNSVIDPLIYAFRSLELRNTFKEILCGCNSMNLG
Test [3] concerns the target Melanocortin receptor 4 (Mus musculus) (UniProt P56450). As to the kind of experiment: Percent stimulation at melanocortin 4 receptor (MC4R) of mouse HEK293 cells at a concentration of 100 uM. Format: cell-based.
Another test addresses Melanocortin receptor 4 (Mus musculus, UniProt P56450). Description: Agonistic activity evaluated at melanocortin 4 receptor (MC4R) of mouse HEK293 cells. Format: functional, cell-based.
The next test has as its target Melanocortin receptor 3 (Mus musculus, UniProt P33033). Description: Agonistic activity evaluated at melanocortin 3 receptor (MC3R) of mouse HEK293 cells. The class given is functional, cell-based.
Test [4] addresses Melanocortin receptor 4 (Mus musculus) (UniProt P56450). Description: Agonistic activity at melanocortin 4 receptor (MC4R) of mouse HEK293 cells at a concentration of 100 uM; NA=No activity. Format: functional, cell-based.
Test [5] has as its target Melanocortin receptor 3 (Mus musculus) (UniProt P33033). Description: Agonistic activity at melanocortin 3 receptor (MC3R) of mouse HEK293 cells at a concentration of 100 uM; NA=No activity. Format: functional, cell-based.
The target in test [6] is Melanocortin receptor 5 (Mus musculus) (UniProt P41149). As to the kind of experiment: Percent stimulation at melanocortin 5 receptor (MC5R) of mouse HEK293 cells at a concentration of 100 uM. Format: cell-based.
Chain of Melanocortin receptor 5 (Mus musculus) (P41149 whole entry): as the sequence (P41149 whole entry) above

Chain of Melanocyte-stimulating hormone receptor (Q01727 whole entry): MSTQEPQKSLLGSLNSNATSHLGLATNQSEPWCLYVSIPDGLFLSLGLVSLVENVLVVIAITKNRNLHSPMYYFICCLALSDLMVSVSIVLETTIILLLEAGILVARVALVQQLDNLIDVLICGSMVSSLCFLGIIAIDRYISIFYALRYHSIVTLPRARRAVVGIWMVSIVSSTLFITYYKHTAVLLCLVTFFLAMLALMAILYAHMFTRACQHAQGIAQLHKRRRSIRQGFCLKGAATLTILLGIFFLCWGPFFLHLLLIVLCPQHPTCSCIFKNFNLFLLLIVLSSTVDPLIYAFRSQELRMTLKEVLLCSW
Chain of Melanocortin receptor 4 (Mus musculus) (P56450 whole entry): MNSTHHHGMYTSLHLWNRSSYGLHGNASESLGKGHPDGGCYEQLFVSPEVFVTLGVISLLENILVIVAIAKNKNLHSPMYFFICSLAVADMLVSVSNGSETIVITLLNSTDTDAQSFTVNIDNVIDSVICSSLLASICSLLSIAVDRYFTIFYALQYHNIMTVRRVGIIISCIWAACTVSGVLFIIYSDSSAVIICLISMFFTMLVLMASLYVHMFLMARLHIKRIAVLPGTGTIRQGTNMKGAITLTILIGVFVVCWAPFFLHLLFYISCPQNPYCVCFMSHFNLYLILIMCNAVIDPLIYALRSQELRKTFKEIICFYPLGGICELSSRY
Chain of Melanocortin receptor 4 (P56450 whole entry): as above
Chain of Melanocortin receptor 3 (P33033 whole entry): as the sequence (P33033 whole entry) above

For orientation: EC50 means the midpoint of the concentration-response curve. On to `CC(=O)N(CCc1c[nH]cn1)CC(=O)N(CC(=O)N(CCCN=C(N)N)CC(=O)N(CCc1c[nH]c2ccccc12)CC(N)=O)Cc1ccccc1` (Ac-[Gly(N-CH2CH2-imidazol-4-yl)][Nphe][Gly(N-(CH2)3-guanidino)][Gly(N(CH2)2(3-indolyl))]-NH2), for which the values for the 50% effective concentration (EC50) (on Melanocortin receptor 5; in [1]) were 5300 nM and 6600 nM, respectively. In addition, the values for the Stimulation in [2] and in test [3] were 55% and 65%, respectively.

For the compound `CC(=O)N(CCc1cnc[nH]1)CC(=O)N[C@@H](Cc1ccccc1)C(=O)N[C@@H](CCCNC(=N)N)C(=O)N[C@@H](Cc1c[nH]c2ccccc12)C(N)=O` (Ac-[Gly(N-CH2CH2-imidazol-4-yl)]FRW-NH2), the EC50 on Melanocortin receptor 5 is 530 nM; in test [1], 1700 nM; on Melanocortin receptor 4, 880 nM.

In the case of `CC(=O)N[C@@H](Cc1c[nH]cn1)C(=O)N[C@@H](Cc1ccccc1)C(=O)N[C@@H](CCCN=C(N)N)C(=O)N(CCc1c[nH]c2ccccc12)CC(N)=O` (Ac-HFR[Gly(N(CH2)2(3-indolyl))]-NH2), the figures for the 50% effective concentration (EC50) (at Melanocortin receptor 5; in test [1]; on Melanocortin receptor 4) were 56 nM, 500 nM and 640 nM, respectively. This compound also came in with a Stimulation in test [2] of 70%.

For `CC(=O)N(CC(=O)N[C@@H](Cc1ccccc1)C(=O)N[C@@H](CCCN=C(N)N)C(=O)N[C@@H](Cc1c[nH]c2ccccc12)C(N)=O)Cc1ccccc1` (Ac-[Nphe]FRW-NH2), the EC50 stood at 360 nM at Melanocortin receptor 5, 780 nM in [1] and 260 nM on Melanocortin receptor 4. The compound also yielded a Stimulation in test [2] of 25%.

`CC(=O)N[C@@H](Cc1cnc[nH]1)C(=O)N(CC(=O)N[C@@H](CCCNC(=N)N)C(=O)N[C@@H](Cc1c[nH]c2ccccc12)C(N)=O)Cc1ccccc1` came in with a concentration for a half-maximal effect (EC50) in [1] of 48000 nM.

Regarding `CC(=O)N[C@@H](Cc1cnc[nH]1)C(=O)N[C@@H](Cc1ccccc1)C(=O)N(CCCNC(=N)N)CC(=O)N[C@@H](Cc1c[nH]c2ccccc12)C(N)=O` (Ac-HF[Gly(N-(CH2)3-guanidino)]W-NH2), the concentration for a half-maximal effect (EC50) at Melanocortin receptor 5 came out at 160 nM; in [1], 170 nM; on Melanocortin receptor 4, 1100 nM; at Melanocortin receptor 3, 9200 nM.

Take `CC(=O)N(CC(=O)N(CC(=O)N(CCCCN=C(N)N)CC(=O)N(CC(N)=O)Cc1cccc2ccccc12)Cc1ccccc1)Cc1ccccc1` (Ac-[Nphe][Nphe][NhArg][N(1-naphthylmethyl)Gly]-NH2): the EC50 at Melanocortin receptor 5 is 20000 nM; in test [1], 7600 nM. Further, in test [4], the Stimulation result is “inactive”. This compound also had a Stimulation in [2] of 55%.

With `CC(=O)N[C@@H](Cc1c[nH]cn1)C(=O)N(CC(=O)N[C@@H](CCCN=C(N)N)C(=O)N[C@@H](Cc1c[nH]c2ccccc12)C(N)=O)Cc1ccccc1`, the Stimulation result in test [5] was “inactive”. Besides, the values for the Stimulation in test [6] and in test [3] were 40% and 20%, respectively.

As for `CC(=O)N(CCc1c[nH]cn1)CC(=O)N[C@@H](Cc1ccccc1)C(=O)N[C@@H](CCCN=C(N)N)C(=O)N[C@@H](Cc1c[nH]c2ccccc12)C(N)=O` (Ac-[Gly(N-CH2CH2-imidazol-4-yl)]FRW-NH2), in test [2], the Stimulation was determined as 60%.

In the case of `CC(=O)N(CCc1c[nH]cn1)CC(=O)N(CC(=O)N(CCCCN)CC(=O)N(CCc1c[nH]c2ccccc12)CC(N)=O)Cc1ccccc1` (Ac-[Gly(N-CH2CH2-imidazol-4-yl)][Nphe][Nlys][Gly(N(CH2)2(3-indolyl))]-NH2), the half-maximal effective concentration (EC50) on Melanocortin receptor 5 was 7380 nM; in test [1], 27000 nM; on Melanocortin receptor 4, 27200 nM. In [2], this compound had a Stimulation of 75%.
